The record followed here is US20260137703A1, “2-AMINO-PYRIDO[2,3-D]PYRIMIDIN-7(8H)-ONE AND 7-AMINO-1-PYRIMIDO[4,5-D]PYRIMIDIN-2(1 H)-ONE DERIVATIVES AS EGFR INHIBITORS FOR THE TREATMENT OF CANCER” (Cancer Research Technology Limited, priority 2022, published 2026).

pIC50: −log10 of the molar value.

The target in experiment [1] is T1, Phospho-EGFR (Tyr1068) in H1975 cells (Homo sapiens, UniProt P00533, L858R/T790M).
T1 construct: host or cells: H1975
The experiment is described as follows: HTRF pEGFR/total EGFR in H1975 cells. It counts as cell-based. The note with it: ratio pEGFR/total EGFR, compound 3 hours. On the procedure:
(§1) H1975 cells (ATCC CRL-5908) were plated at 20,000 cells per well in 96 well plates and placed at 37° C. 5% CO2. Once adhered (after 24 h) cells were treated with compounds dissolved in DMSO at a final concentration of 0.1% DMSO in media. Compounds were diluted in media then added to cells for 3 hours in duplicate. Compound and media were removed from the cells, then 50 ul of HTRF lysis buffer is added (lysis buffer was diluted from 4× stock to 1× in DI water, with 1% blocking agent also added). Cells were lysed on a plate shaker (2000 rpm) for 30 minutes at room temperature. pEGFR expression was monitored using the Cisbio Phospho-EGFR (Tyri068) cellular kit (64EG1PEH). Total EGFR expression was monitored using the Cisbio Total EGFR cellular kit (64NG1PEH) as per manufacturer's instructions. Fluorescence emission was read at two different wavelengths (665 nm and 620 nm) on a PheraStar. Results were calculated as ratio of pEGFR/total EGFR and then percentage of 0 μM control.

Experiment [2] has as its target T2, Phospho-EGFR (Tyr1068) in H1975 C797S cells (CRISPR-edited EGFR C797S) (Homo sapiens, UniProt P00533, C797S/L858R/T790M).
T2 construct: host or cells: H1975 C797S (CRISPR-edited)
The experiment in a line: HTRF pEGFR/total EGFR in H1975 C797S cells. It counts as cell-based. The note with it: ratio pEGFR/total EGFR, compound 3 hours. On the procedure:
as §1, with “[…]. Once” for “H1975 cells (ATCC CRL-5908) were plated at 20,000 cells per well in 96 well plates and placed at 37° C. 5% CO2. Once”, “buffer was” for “buffer is”, “Phospho-EGFR (Tyr1068)” for “Phospho-EGFR (Tyri068)”

Experiment [3] concerns the target CtermHisTag-mEGFR Wild type (Homo sapiens, UniProt P00533). The experiment is described as follows: biochemical.
Experiment [4] deals with T3, Phospho-EGFR (Tyr1068) in A431 cells (Homo sapiens, UniProt P00533).
T3 construct: endogenous in cells; host or cells: A431
T3 sequence (P00533 25-1210): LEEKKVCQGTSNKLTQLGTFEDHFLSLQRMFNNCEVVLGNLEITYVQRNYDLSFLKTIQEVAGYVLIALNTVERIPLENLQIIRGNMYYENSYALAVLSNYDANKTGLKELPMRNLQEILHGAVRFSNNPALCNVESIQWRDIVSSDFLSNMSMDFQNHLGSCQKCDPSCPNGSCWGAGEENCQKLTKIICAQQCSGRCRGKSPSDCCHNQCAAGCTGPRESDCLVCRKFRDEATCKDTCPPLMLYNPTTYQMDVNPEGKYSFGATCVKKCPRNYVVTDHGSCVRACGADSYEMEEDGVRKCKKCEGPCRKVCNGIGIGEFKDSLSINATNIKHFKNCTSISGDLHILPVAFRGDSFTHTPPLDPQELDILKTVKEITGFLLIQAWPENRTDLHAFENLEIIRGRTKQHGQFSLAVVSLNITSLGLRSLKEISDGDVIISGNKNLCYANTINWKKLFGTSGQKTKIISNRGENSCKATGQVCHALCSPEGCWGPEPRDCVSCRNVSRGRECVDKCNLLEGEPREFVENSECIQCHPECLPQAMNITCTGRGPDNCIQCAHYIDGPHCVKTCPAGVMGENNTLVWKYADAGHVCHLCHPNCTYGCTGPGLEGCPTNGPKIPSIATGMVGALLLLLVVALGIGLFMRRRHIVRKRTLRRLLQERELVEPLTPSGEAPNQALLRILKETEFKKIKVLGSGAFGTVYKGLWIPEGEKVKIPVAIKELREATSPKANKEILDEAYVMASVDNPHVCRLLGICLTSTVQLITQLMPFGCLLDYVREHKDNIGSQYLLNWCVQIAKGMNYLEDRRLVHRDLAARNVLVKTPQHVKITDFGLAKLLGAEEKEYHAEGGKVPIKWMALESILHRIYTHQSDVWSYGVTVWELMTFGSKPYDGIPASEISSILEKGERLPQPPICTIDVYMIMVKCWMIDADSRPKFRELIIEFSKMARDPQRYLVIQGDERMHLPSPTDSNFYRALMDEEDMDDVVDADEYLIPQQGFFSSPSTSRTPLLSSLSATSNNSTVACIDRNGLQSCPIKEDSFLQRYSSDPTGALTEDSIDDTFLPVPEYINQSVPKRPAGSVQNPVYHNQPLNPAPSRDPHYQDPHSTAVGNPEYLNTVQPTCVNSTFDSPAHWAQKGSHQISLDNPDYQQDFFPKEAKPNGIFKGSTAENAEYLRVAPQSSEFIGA
The experiment is described as follows: HTRF pEGFR/total EGFR in A431 cells with EGF stimulation. It is filed as cell-based. The note with it: ratio pEGFR/total EGFR, compound 2.5 hours then 100 ng/ml EGF 30 mins. How it is done:
Cells were plated at 20,000 cells per well in 96 well plates and placed at 37° C. 5% CO2. Once adhered (after 24 h) cells were treated with compounds dissolved in DMSO at a final concentration of 0.1% DMSO in media. Compounds were diluted in media then added to cells for 2.5 hours in duplicate, 100 ng/ml EGF (ThermoFisher, PHG0311) was added to all compound treated cells as well as a control for 30 mins. Compound and media were removed from the cells, then 50 ul of HTRF lysis buffer was added (lysis buffer was diluted from 4× stock to 1× in DI water, with 1% blocking agent also added). Cells were lysed on a plate shaker (2000 rpm) for 30 minutes at room temperature. pEGFR expression was monitored using the Cisbio Phospho-EGFR (Tyr1068) cellular kit (64EG1PEH). Total EGFR expression was monitored using the Cisbio Total EGFR cellular kit (64NG1PEH) as per manufacturer's instructions. Fluorescence emission was read at two different wavelengths (665 nm and 620 nm) on a PheraStar. Results were calculated as ratio of pEGFR/total EGFR and then percentage of 0 μM control.

T1 sequence (P00533 25-1210 T790M/L858R): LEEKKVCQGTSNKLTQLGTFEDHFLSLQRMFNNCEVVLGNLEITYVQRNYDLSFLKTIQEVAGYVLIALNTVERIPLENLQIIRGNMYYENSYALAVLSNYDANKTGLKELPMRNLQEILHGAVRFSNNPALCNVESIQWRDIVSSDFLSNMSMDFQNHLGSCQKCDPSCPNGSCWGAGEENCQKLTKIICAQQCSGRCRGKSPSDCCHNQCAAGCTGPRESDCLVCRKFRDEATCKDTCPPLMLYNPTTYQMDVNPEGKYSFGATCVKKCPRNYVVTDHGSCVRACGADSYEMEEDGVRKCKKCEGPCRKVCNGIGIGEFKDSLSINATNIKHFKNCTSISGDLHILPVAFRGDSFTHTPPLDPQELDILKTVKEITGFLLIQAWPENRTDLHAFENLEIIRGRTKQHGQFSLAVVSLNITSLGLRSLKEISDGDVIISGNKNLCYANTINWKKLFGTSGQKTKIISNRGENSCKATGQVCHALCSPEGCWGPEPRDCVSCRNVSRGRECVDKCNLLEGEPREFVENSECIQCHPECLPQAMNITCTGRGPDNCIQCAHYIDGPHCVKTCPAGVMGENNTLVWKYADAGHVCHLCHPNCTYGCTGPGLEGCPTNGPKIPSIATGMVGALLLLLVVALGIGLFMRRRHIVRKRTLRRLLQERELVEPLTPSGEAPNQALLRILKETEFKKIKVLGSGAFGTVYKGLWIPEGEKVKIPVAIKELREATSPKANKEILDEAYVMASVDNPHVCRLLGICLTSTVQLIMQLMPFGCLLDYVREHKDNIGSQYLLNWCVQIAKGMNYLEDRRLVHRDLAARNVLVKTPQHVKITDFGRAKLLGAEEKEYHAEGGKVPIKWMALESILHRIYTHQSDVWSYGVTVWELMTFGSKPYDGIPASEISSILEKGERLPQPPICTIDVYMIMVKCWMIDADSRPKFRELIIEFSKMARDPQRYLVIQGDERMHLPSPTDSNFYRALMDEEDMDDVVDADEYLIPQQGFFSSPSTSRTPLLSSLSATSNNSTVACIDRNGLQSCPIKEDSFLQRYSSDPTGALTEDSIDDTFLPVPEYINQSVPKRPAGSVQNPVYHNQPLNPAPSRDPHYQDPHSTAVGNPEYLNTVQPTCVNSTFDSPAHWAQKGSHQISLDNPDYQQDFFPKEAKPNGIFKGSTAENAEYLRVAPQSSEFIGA
T2 sequence (P00533 25-1210 T790M/C797S/L858R): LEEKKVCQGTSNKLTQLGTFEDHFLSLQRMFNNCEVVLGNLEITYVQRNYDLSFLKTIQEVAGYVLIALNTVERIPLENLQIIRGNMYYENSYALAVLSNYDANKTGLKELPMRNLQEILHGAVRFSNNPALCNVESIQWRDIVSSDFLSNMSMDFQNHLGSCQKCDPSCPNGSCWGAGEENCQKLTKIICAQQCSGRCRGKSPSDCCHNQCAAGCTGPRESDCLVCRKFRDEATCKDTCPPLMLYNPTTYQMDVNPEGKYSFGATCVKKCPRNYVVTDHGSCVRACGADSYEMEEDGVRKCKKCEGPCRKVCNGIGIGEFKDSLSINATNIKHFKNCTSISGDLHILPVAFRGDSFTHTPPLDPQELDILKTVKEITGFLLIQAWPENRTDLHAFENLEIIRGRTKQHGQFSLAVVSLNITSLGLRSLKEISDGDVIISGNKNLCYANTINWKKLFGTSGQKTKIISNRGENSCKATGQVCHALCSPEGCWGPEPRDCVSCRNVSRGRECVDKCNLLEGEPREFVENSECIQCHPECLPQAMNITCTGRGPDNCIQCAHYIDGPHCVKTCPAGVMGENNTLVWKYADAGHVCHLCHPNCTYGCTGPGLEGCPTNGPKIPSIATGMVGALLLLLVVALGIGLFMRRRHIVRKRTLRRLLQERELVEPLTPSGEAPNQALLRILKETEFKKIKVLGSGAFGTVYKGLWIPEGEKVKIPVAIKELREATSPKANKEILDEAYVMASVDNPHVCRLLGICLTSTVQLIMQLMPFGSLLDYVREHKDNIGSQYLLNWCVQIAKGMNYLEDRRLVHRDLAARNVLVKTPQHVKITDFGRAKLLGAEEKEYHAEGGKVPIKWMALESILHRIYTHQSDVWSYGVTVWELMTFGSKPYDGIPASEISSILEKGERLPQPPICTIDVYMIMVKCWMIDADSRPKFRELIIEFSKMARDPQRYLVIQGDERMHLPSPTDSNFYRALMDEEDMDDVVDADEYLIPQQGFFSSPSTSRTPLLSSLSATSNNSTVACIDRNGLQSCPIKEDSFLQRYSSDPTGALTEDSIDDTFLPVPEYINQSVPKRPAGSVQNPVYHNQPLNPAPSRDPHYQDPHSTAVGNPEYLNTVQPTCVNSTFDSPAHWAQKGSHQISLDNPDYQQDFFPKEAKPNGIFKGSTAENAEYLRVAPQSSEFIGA
CtermHisTag-mEGFR Wild type, sequence (P00533 whole entry): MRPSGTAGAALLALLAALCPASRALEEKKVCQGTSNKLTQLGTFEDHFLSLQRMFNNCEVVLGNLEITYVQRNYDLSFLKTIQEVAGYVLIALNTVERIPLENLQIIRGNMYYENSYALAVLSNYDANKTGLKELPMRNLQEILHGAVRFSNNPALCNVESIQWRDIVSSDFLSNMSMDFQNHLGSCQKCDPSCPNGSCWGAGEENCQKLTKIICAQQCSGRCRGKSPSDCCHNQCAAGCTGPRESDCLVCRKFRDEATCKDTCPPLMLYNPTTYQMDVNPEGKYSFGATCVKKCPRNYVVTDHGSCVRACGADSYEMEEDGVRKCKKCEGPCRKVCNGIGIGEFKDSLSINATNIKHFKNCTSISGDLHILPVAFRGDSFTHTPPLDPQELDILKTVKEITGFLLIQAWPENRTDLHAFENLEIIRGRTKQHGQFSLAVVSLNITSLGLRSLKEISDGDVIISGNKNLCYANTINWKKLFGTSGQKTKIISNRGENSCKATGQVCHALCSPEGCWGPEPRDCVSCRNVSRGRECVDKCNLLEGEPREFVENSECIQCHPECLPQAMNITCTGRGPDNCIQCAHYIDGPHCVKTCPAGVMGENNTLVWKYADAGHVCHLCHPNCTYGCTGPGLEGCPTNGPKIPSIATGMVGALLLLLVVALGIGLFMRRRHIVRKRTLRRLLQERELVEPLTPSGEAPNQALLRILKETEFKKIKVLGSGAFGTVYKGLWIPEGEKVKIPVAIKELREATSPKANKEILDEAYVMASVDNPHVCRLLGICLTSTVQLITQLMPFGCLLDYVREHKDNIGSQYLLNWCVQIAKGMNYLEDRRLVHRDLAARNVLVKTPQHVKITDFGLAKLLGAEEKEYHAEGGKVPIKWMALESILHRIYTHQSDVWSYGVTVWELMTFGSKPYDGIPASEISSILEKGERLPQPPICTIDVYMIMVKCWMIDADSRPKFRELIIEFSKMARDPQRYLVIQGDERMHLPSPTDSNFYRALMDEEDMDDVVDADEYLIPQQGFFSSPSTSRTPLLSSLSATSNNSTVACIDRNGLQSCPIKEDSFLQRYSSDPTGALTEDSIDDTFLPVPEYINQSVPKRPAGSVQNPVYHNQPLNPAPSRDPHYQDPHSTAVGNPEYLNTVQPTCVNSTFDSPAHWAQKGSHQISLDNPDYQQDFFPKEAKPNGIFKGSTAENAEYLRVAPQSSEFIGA

`C#Cc1cc(=O)n(C)c2nc(Nc3ccc(N4CCN(C)CC4)c(OC)c3)ncc12` [Example 208, 5-Ethynyl-2-((3-methoxy-4-(4-methylpiperazin-1-yl)phenyl)amino)-8-methylpyrido[2,3-d]pyrimidin-7(8H)-one]: the pIC50 in experiment [1] was over 6.30; in experiment [2] it was over 6.30; in experiment [3] it was over 6.00; in experiment [4], 5.52 to 6.00.

As to `C#Cc1c(C)c(=O)n(Cc2ncco2)c2nc(Nc3ccc(N4CCN(C)CC4)cc3)ncc12` [Example 114, 5-ethynyl-6-methyl-2-{[4-(4-methylpiperazin-1-yl)phenyl]amino}-8-(1,3-oxazol-2-ylmethyl)pyrido[2,3-d]pyrimidin-7-one], the pIC50 in experiment [1] is 5.52 to 6.00; in experiment [2] it was 5.52 to 6.00; in experiment [3] it was over 6.00; in experiment [4], 5.52 to 6.00.

For `C=Cc1c(-c2ccccc2Cl)c(=O)n(C)c2nc(Nc3ccc(OCCN(C)C)cc3)ncc12` [Example 172, 6-(2-chlorophenyl)-2-({4-[2-(dimethylamino)ethoxy]phenyl}amino)-5-ethenyl-8-methylpyrido[2,3-d]pyrimidin-7-one], the pIC50 is under 5.52 in experiment [1], under 5.52 in experiment [2], under 5.00 in experiment [3] and under 5.52 in experiment [4].

Regarding `C#Cc1c(-c2cc(OC)ccc2Cl)c(=O)n(C)c2nc(Nc3ccc(N(C)CCN(C)C)cc3)ncc12` [Example 136, 6-(2-chloro-5-methoxyphenyl)-2-[(4-{[2-(dimethylamino)ethyl](methyl)amino}phenyl)amino]-5-ethynyl-8-methylpyrido[2,3-d]pyrimidin-7-one], the pIC50 in experiment [1] is over 6.30; in experiment [2] it was 6.00 to 6.30; in experiment [3], over 6.00; in experiment [4], 5.52 to 6.00.

For the compound `C#Cc1c(C)c(=O)n2c3nc(ncc13)Nc1ccc(N3CCN(C)CC3)c(c1)OCCCC2` [Example 194, 1^5-Ethynyl-1^6-methyl-3^4-(4-methylpiperazin-1-yl)-1^7,1^8-dihydro-4-oxa-2-aza-1(2,8)-pyrido [2,3-d]pyrimidina-3(1,3)-benzenacyclooctaphan-1^7-one], the pIC50 in experiment [1] was over 6.30; in experiment [2], over 6.30; in experiment [3] it was over 6.00; in experiment [4], over 6.30.

On to `C#Cc1cc(=O)n([C@H]2CC[C@@H](NC(=O)CC(=O)NC)CC2)c2nc(Nc3ccc(N4CCN(C)CC4)cc3)ncc12` [Example 94, N-Methyl-N′-[(1s,4s)-4-(5-ethynyl-2-{[4-(4-methylpiperazin-1-yl)phenyl]amino}-7-oxopyrido[2,3-d]pyrimidin-8-yl)cyclohexyl]propanediamide], for which the pIC50 in experiment [1] was 6.00 to 6.30; in experiment [2], 6.00 to 6.30; in experiment [3], 5.00 to 6.00; in experiment [4], under 5.52.

As for `C#Cc1cc(=O)n(-c2ccccc2)c2nc(Nc3ccc4c(c3)CCNCC4)ncc12` [Example 26, 5-ethynyl-8-phenyl-2-(2,3,4,5-tetrahydro-1H-3-benzazepin-7-ylamino)pyrido [2,3-d]pyrimidin-7-one], the pIC50 in experiment [1] is over 6.30; in experiment [2] it was over 6.30; in experiment [3], over 6.00; in experiment [4], 5.52 to 6.00.

Turning to `C#Cc1c(C)c(=O)n(Cc2ccn[nH]2)c2nc(Nc3ccc(N4CCN(C)CC4)cc3)ncc12` [Example 109, 5-ethynyl-6-methyl-2-{[4-(4-methylpiperazin-1-yl)phenyl]amino}-8-(2H-pyrazol-3-ylmethyl)pyrido[2,3-d]pyrimidin-7-one], the pIC50 in experiment [1] is 5.52 to 6.00; in experiment [2] it was 5.52 to 6.00; in experiment [3] it was 5.00 to 6.00; in experiment [4] it was 5.52 to 6.00.

As for `C#Cc1c(C2CC2)c(=O)n(C)c2nc(Nc3ccc(N4CCN(C)CC4)cc3)ncc12` [Example 148, 6-cyclopropyl-5-ethynyl-8-methyl-2-{[4-(4-methylpiperazin-1-yl)phenyl]amino}pyrido[2,3-d]pyrimidin-7-one], the pIC50 in experiment [1] is under 5.52; in experiment [2], under 5.52; in experiment [3] it was under 5.00; in experiment [4], under 5.52.

With `C#Cc1cc(=O)n([C@H]2CC[C@@H](N(C)C(=O)CN(C)C)CC2)c2nc(Nc3ccccc3OC)ncc12` [Example 101, 2-(Dimethylamino)-N-methyl-N-[(1s,4s)-4-{5-ethynyl-2-[(2-methoxyphenyl)amino]-7-oxopyrido[2,3-d]pyrimidin-8-yl}cyclohexyl]acetamide], the pIC50 in experiment [1] is under 5.52; in experiment [2], under 5.52; in experiment [3], under 5.00; in experiment [4], under 5.52.

In the case of `C#Cc1cc(=O)n(-c2ccccc2)c2nc(Nc3ccc(N4CCN(C5COC5)CC4)cc3)ncc12` [Example 18, 5-Ethynyl-2-({4-[4-(oxetan-3-yl)piperazin-1-yl]phenyl}amino)-8-phenylpyrido[2,3-d]pyrimidin-7-one], the negative-log IC50 (pIC50) in experiment [1] is over 6.30; in experiment [2], over 6.30; in experiment [3] it was over 6.00; in experiment [4], 5.52 to 6.00.

Take `C#Cc1cc(=O)n(C2CNC(=O)C2)c2nc(Nc3ccc(N4CCN(C)CC4)cc3)ncc12` (centres unmarked) [Example 108, 4-(5-ethynyl-2-{[4-(4-methylpiperazin-1-yl)phenyl]amino}-7-oxopyrido[2,3-d]pyrimidin-8-yl)pyrrolidin-2-one]: the pIC50 in experiment [1] is under 5.52; in experiment [2] it was under 5.52; in experiment [3], under 5.00; in experiment [4], under 5.52.

`C#Cc1cc(=O)n(C2CC(=O)N(C)C2)c2nc(Nc3ccc(N4CCN(C)CC4)cc3)ncc12` (centres unmarked) [Example 117, 4-(5-ethynyl-2-{[4-(4-methylpiperazin-1-yl)phenyl]amino}-7-oxopyrido[2,3-d]pyrimidin-8-yl)-1-methylpyrrolidin-2-one]: the pIC50 in experiment [1] is under 5.52; in experiment [2] it was under 5.52; in experiment [3] it was under 5.00; in experiment [4], under 5.52.

For `C#Cc1c(C)c(=O)n(Cc2cccnc2)c2nc(Nc3ccc(N4CCN(C)CC4)cc3)ncc12` [Example 116, 5-ethynyl-6-methyl-2-{[4-(4-methylpiperazin-1-yl)phenyl]amino}-8-(pyridin-3-ylmethyl)pyrido[2,3-d]pyrimidin-7-one], the pIC50 in experiment [1] is under 5.52; in experiment [2], under 5.52; in experiment [3], 5.00 to 6.00; in experiment [4], 5.52 to 6.00.

As for `C#Cc1cc(=O)n(C2CCCC2)c2nc(Nc3cccc4c3CCN(C)C4)ncc12` [Example 185, 8-Cyclopentyl-5-ethynyl-2-[(2-methyl-3,4-dihydro-1H-isoquinolin-5-yl)amino]pyrido[2,3-d]pyrimidin-7-one], the pIC50 in experiment [1] is under 5.52; in experiment [2], under 5.52; in experiment [3], under 5.00; in experiment [4] it was under 5.52.

In the case of `C#Cc1cc(=O)n([C@H]2CC[C@@H](NC(C)=O)CC2)c2nc(Nc3ccc(N(C)CCN(C)C)cc3)ncc12` [Example 79, N-[(1s,4s)-4-{2-[(4-{[2-(Dimethylamino)ethyl](methyl)amino}phenyl)amino]-5-ethynyl-7-oxopyrido[2,3-d]pyrimidin-8-yl}cyclohexyl]acetamide], the pIC50 in experiment [1] is over 6.30; in experiment [2], over 6.30; in experiment [3], over 6.00; in experiment [4], 5.52 to 6.00.

As for `C#Cc1cc(=O)n2c3nc(ncc13)Nc1ccc(N3CCN(C)CC3)c(c1)NC(=O)CCC2` [Example 222, 1^5-ethynyl-3^4-(4-methylpiperazin-1-yl)-1^7,1^8-dihydro-2,4-diaza-1(2,8)-pyrido[2,3-d]pyrimidina-3(1,3)-benzenacyclooctaphane-1^7,5-dione], the pIC50 is over 6.30 in experiment [1], over 6.30 in experiment [2], over 6.00 in experiment [3] and 5.52 to 6.00 in experiment [4].
